How the values were obtained:
Format in all cases: functional
Streptococcus pneumoniae [1] = test: Antimicrobial activity against penicillin- and erythromycin-resistant Streptococcus pneumoniae
Streptococcus pneumoniae [2] = test: Antimicrobial activity against penicillin- and erythromycin-resistant Streptococcus pneumoniae in presence of 2.5% horse blood
Staphylococcus aureus [3] = test: Antimicrobial activity against methicillin-sensitive Staphylococcus aureus ATCC 13709
Staphylococcus aureus [4] = test: Antimicrobial activity against vancomycin-susceptible Staphylococcus aureus ATCC 25923
Staphylococcus aureus [5] = test: Antimicrobial activity against Staphylococcus aureus Oxford
Staphylococcus aureus [6] = test: Antimicrobial activity against methicillin-resistant Staphylococcus aureus
Enterococcus faecalis = test: Antimicrobial activity against vancomycin-susceptible Enterococcus faecalis ATCC 29212
Enterococcus faecium = test: Antimicrobial activity against vancomycin-resistant Enterococcus faecium
Streptococcus pneumoniae [7] = test: Antimicrobial activity against erythromycin-susceptible Streptococcus pneumoniae ATCC 49619
Haemophilus influenzae [8] = test: Antimicrobial activity against Haemophilus influenzae ATCC 31517 MMSA
Haemophilus influenzae [9] = test: Antimicrobial activity against LS2 Efflux knock-out Haemophilus influenzae
Escherichia coli [10] = test: Antimicrobial activity against Escherichia coli ATCC 25922
Escherichia coli [11] = test: Antimicrobial activity against Escherichia coli 50
Pseudomonas aeruginosa = test: Antimicrobial activity against Pseudomonas aeruginosa ATCC 27853
Escherichia coli [12] = test: Antimicrobial activity against Escherichia coli 49

Measured: MIC

C/C(NCCOc1ccccc1)=C1/C(=O)[C@@H]2CO[C@@H](C(C)(C)C)N2C1=O
> 32 µg/mL: all assays above

C/C(NCCOc1ccccc1)=C1/C(=O)[C@@H]2CCCC(=O)N2C1=O
> 32 µg/mL: all assays above

C/C(NCCOc1ccccc1Cl)=C1/C(=O)[C@@H]2CCCC(=O)N2C1=O
> 32 µg/mL: all assays above

C/C(NCCOc1ccccc1Cl)=C1/C(=O)CNC1=O
> 32 µg/mL: all assays above

COC(=O)[C@@]12CO[C@@H](C(C)(C)C)N1C(=O)/C(=C(\C)Nc1ccccc1)C2=O
> 32 µg/mL: all assays above

CCOC(=O)[C@]12CO[C@H](C(C)(C)C)N1C(=O)/C(=C(\C)Nc1ncc(Cl)cn1)C2=O
> 32 µg/mL: all assays above

CCCCCCC/C=C/C(=O)N1C(=O)/C(=C(\C)Nc2ccc(N3CCOCC3)cc2)C(=O)C1CC(C)C (stereo not given)
> 32 µg/mL: all assays above

CCCCCCN/C(=C1/C(=O)CNC1=O)c1ccccc1
> 32 µg/mL: all assays above

O=C1CNC(=O)/C1=C(\NC1CCCCC1)c1cccc2ccccc12
> 32 µg/mL: all assays above

O=C1CNC(=O)/C1=C(\NCc1ccccc1)c1cccc2ccccc12
> 32 µg/mL: all assays above

CCCCCCCCCCCCC/C(Nc1ccccc1)=C1\C(=O)CNC1=O
> 32 µg/mL: all assays above

CCCCCC/C(Nc1ccc(N2CCOCC2)cc1)=C1\C(=O)CNC1=O
> 32 µg/mL: all assays above

CCCCCCCCCCC/C(Nc1ccc(N)cc1)=C1\C(=O)CN(CCCCCC)C1=O
> 32 µg/mL: all assays above

CCCC(=O)N1CC(=O)/C(=C(\CCCCc2ccccc2)NC2CC(C)(C)N(C)C(C)(C)C2)C1=O
> 32 µg/mL: all assays above

CCCCCCC(=O)N1CC(=O)/C(=C(\CCCOc2ccccc2)NCCCOC(C)C)C1=O
> 32 µg/mL: all assays above

CCCCCCC(=O)N1CC(=O)/C(=C(\CCCCCC)NC2CCCCC2)C1=O
> 32 µg/mL: all assays above

CSCCC1C(=O)/C(=C(\CC23CC4CC(CC(C4)C2)C3)NCC(C)(C)CN(C)C)C(=O)N1C(C)=O (stereo not given)
> 32 µg/mL: all assays above

CCCCCCCCCC/C(NCCCOC(C)C)=C1\C(=O)C(CCSC)N(C(C)=O)C1=O (stereo not given)
> 32 µg/mL: all assays above

CCN(CC)CCCC(C)N/C(CCCOc1ccccc1)=C1/C(=O)C(CC(C)C)N(C(=O)c2ccccc2)C1=O (stereo not given)
> 32 µg/mL: all assays above

CC(C)(C)[C@H]1OC[C@@H]2C(=O)/C(=C(/NCCCCN)c3ccccc3)C(=O)N21
> 32 µg/mL: all assays above

CC1CCCCN1CCCN/C(CC12CC3CC(C)(CC(C)(C3)C1)C2)=C1/C(=O)[C@@H]2CCCC(=O)N2C1=O (stereo not given in full)
> 32 µg/mL: all assays above

— ChEMBL document CHEMBL3232809, “Synthesis, antibiotic activity and structure-activity relationship study of some 3-enaminetetramic acids” (2014)
